{"source": "patent US20230338391A1", "about": "“TREATMENT FOR DEPRESSION” (TAKEDA PHARMACEUTICAL COMPANY LIMITED, priority 2020, published 2023)", "key": {"[1]": {"system": "MEPs", "test": "Nonclinical MEP amplitude in rats", "assay_type": "in vivo", "conditions": "nonclinical data"}, "[2]": {"test": "Population PK modeling and simulation", "design": "species or system human", "procedure": "Data processing and graphical visualization was performed using Matlab (version R2019a; The MathWorks, Inc., Natick, Massachusetts, United States).\nThe Stochastic Approximation of Expectation Maximization (SAEM) algorithm, a stochastic algorithm for calculating the maximum likelihood estimator, was selected as model-estimation method for its ability to accurately estimate population parameters.\nModel building and selection was based on the following criteria/procedures: • Evaluation of individual and population parameter estimates and their precision (precision was quantified using the percentage of relative standard error (% RSE)); • Graphical examination of diagnostic and goodness-of-fit plots; • Analysis of correlation matrix of the estimates and condition number; • Reduction in both residual variability and inter-individual variability; and • Reduction in log likelihood (−2LL), Akaike Information Criterion (AIC) and Bayesian Information Criterion (BIC) for all nested models.\nThe base model was built by using these criteria to compare different structural models (e.g., one-compartment, two-compartment, three-compartment) with different absorption (e.g., zero order, first order) and elimination (e.g., linear, nonlinear) processes. Development of the base model was performed by adding inter-individual variability (IIV) on one structural parameter at a time and applying the set criteria to select the best model. IIV was generally modeled as an exponential term as follows:\nA covariate model was then built to further reduce the unexplained inter-individual variability. Development of the covariate model was performed using the forward selection and backward elimination method. In the forward selection step, covariates were tested one at the time. […] In the backward elimination step, covariates were eliminated one at the time and changes in −2LL recorded.\nThe final model was evaluated using a visual predictive check, a simulation-based method to visually assess concordance of the model-based simulations and observed data. Bootstrap analysis was also performed to determine the precision of the parameter estimates, estimate confidence interval of identified parameters and assess the stability of the model. […]"}, "[3]": {"test": "14-day rat neurotoxicology study: toxicokinetics", "assay_type": "in vivo, Sprague-Dawley rats", "conditions": "for AUC / concentration at 15 day / Cmax: Sprague-Dawley, rat, plasma; for concentration at 15 day: read-out: plasma level at the time of sacrifice", "procedure": "An appropriate amount of methylcellulose (MC) was weighed and mixed with a small amount of warm water for injection. The mixture was then diluted with water for injection to make a 0.5% (w/v) MC solution. The vehicle was used for dosing in the control group. To make a 40 mg/mL suspension of COMPOUND A, an appropriate amount of the test article was weighed and mixed with the vehicle using a planetary centrifugal mixer and the mixture was then diluted with additional vehicle. The 40 mg/mL suspension was used to make 20 and 10 mg/mL suspensions by stepwise dilutions with the vehicle. The dosing suspensions were stored in a refrigerator (actual values: 3.7° C. to 6.1° C., acceptable range: 2° C. to 8° C.) under light-resistant conditions (tight container) and used within 8 days after preparation.\nMales and females in good condition were selected for this study based on examinations within 4 days before the first dosing. Based on their body weights, animals were stratified and allocated randomly to 3 main study groups, each composed of 18 males and 18 females, and 2 satellite groups each composed of 9 males and 9 females for determination of plasma drug and metabolite concentrations. Surplus animals after animal selection were excluded from the study on the day after the animal selection or the day dosing commenced (Day 1).\nReferring to Tables 4A and 4B, the plasma concentrations of COMPOUND A on Days 2, 7, and 14 were determined in each satellite group. Blood samples (approximately 0.25 mL) were drawn without anesthesia from the subclavian vein of 3 animals of each sex in the satellite groups at each sampling point using sodium-heparinized syringes. Sampling points were as follows: pre-dose and at 1, 2, 4, 8, and 24 hours post-dose. In addition, the plasma concentrations of COMPOUND A before scheduled necropsy were determined in each main study group. The plasma samples (≥0.08 mL) in polypropylene tubes were frozen and stored in a freezer (actual values: −87.0° C. to −83.5° C.) until shipment with parallel quality control (QC) samples prepared by test site 2 and stored under the same conditions as study plasma samples in the test facility. The samples, including the parallel QC samples, were packed with dry ice and shipped to test site 2. The samples were stored frozen at −85.8° C. to −75.5° C. until assay. The plasma concentrations of COMPOUND A and its metabolites, were determined by liquid chromatography/tandem mass spectrometry (LC/MS/MS) and the TK parameters (tmax, Cmax, and AUC24 value) on Days 2, 7, and 14 were calculated for the satellite groups at test site 2."}, "[4]": {"conditions": "final POPPK model, inter-individual variability"}, "[5]": {"conditions": "final POPPK model, residual error"}}, "note": "Values joined by “and” are separate entries in the source; they are usually repeats but may differ in a detail not shown here. Equal entries are not always repeated. Where two headings read alike, the source gives them in different places.", "data": [{"molecule": "CC1=CN2CCS(=O)(=O)N=C2C(c2ccc(OC3CCCCC3)cc2)=N1", "note": "[COMPOUND A, 9-[4-(Cyclohexyloxy)phenyl]-7-methyl-3,4-dihydropyrazino[2,1-c][1,2,4]thiadiazine 2,2-dioxide]", "values": [{"measurement": "amplitude of MEPs", "setting": "[1]", "value": "increases the amplitude of MEPs in rats"}, {"measurement": "Additive Error, median bootstrap parameter estimate", "setting": "[2]; bootstrap analysis", "value": 0.34, "unit": "SD"}, {"measurement": "CL/F_IIV, median bootstrap parameter estimate", "setting": "[2]; bootstrap analysis", "value": 61.97, "unit": "% CV"}, {"measurement": "KA IIV, median bootstrap parameter estimate", "setting": "[2]; bootstrap analysis", "value": 97.18, "unit": "% CV"}, {"measurement": "Proportional Error, median bootstrap parameter estimate", "setting": "[2]; bootstrap analysis", "value": 37.72, "unit": "% CV"}, {"measurement": "TLag IIV, median bootstrap parameter estimate", "setting": "[2]; bootstrap analysis", "value": 67.78, "unit": "% CV"}, {"measurement": "V/F_IIV, median bootstrap parameter estimate", "setting": "[2]; bootstrap analysis", "value": 33.27, "unit": "% CV"}, {"measurement": "CL/F_IIV, population parameter estimate", "setting": "[2]; [4]", "value": 62.53, "unit": "% CV"}, {"measurement": "KA IIV, population parameter estimate", "setting": "[2]; [4]", "value": 98.99, "unit": "% CV"}, {"measurement": "TLag IIV, population parameter estimate", "setting": "[2]; [4]", "value": 69.17, "unit": "% CV"}, {"measurement": "V/F_IIV, population parameter estimate", "setting": "[2]; [4]", "value": 33.77, "unit": "% CV"}, {"measurement": "Additive Error, population parameter estimate", "setting": "[2]; [5]", "value": 0.35, "unit": "SD"}, {"measurement": "Proportional Error, population parameter estimate", "setting": "[2]; [5]", "value": 37.56, "unit": "% CV"}, {"measurement": "plasma level at the time of sacrifice", "setting": "[3]; Day 15, females at 200 mg/kg/day not observed to convulse, no brain histopathology, individual animals, 200 mg/kg/day", "value": "192 ng/mL and 968 ng/mL and 114 ng/mL"}, {"measurement": "plasma level at the time of sacrifice", "setting": "[3]; Day 15, females at 200 mg/kg/day with lesions visible with Fluoro-Jade only, individual animals, 200 mg/kg/day", "value": 138, "unit": "ng/mL"}, {"measurement": "AUC", "setting": "[3]; both sexes, oral, 100 mg/kg/day, NOAEL 100 mg/kg/day, read-out: NOAEL exposure cap (AUC) from the 14-day neurotoxicity study in rats", "value": 17400, "unit": "ng·h/mL"}, {"measurement": "concentration at 15 day", "setting": "[3]; female, oral, 200 mg/kg/day, Day 15, female at 200 mg/kg/day with lesions visible with both HE and Fluoro-Jade, individual animal", "value": 935, "unit": "ng/mL"}, {"measurement": "concentration at 15 day", "setting": "[3]; female, oral, 200 mg/kg/day, Day 15, females at 200 mg/kg/day with lesions visible with Fluoro-Jade only, individual animals", "value": 182, "unit": "ng/mL"}, {"measurement": "Cmax", "setting": "[3]; female, po, 100 mg/kg/day, 100 mg/kg/day oral, female, Day 2", "value": 1640, "unit": "ng/mL"}, {"measurement": "AUC", "setting": "[3]; female, po, 100 mg/kg/day, 100 mg/kg/day oral, female, Day 2, read-out: AUC24", "value": 20500, "unit": "ng·h/mL"}, {"measurement": "Cmax", "setting": "[3]; female, po, 100 mg/kg/day, 100 mg/kg/day oral, female, Day 7", "value": 1270, "unit": "ng/mL"}, {"measurement": "AUC", "setting": "[3]; female, po, 100 mg/kg/day, 100 mg/kg/day oral, female, Day 7, read-out: AUC24", "value": 14900, "unit": "ng·h/mL"}, {"measurement": "Cmax", "setting": "[3]; female, po, 100 mg/kg/day, 100 mg/kg/day oral, female, Day 14", "value": 1670, "unit": "ng/mL"}, {"measurement": "AUC", "setting": "[3]; female, po, 100 mg/kg/day, 100 mg/kg/day oral, female, Day 14, read-out: AUC24", "value": 17800, "unit": "ng·h/mL"}, {"measurement": "Cmax", "setting": "[3]; female, po, 200 mg/kg/day, 200 mg/kg/day oral, female, Day 2", "value": 1630, "unit": "ng/mL"}, {"measurement": "AUC", "setting": "[3]; female, po, 200 mg/kg/day, 200 mg/kg/day oral, female, Day 2, read-out: AUC24", "value": 18000, "unit": "ng·h/mL"}, {"measurement": "Cmax", "setting": "[3]; female, po, 200 mg/kg/day, 200 mg/kg/day oral, female, Day 7", "value": 2340, "unit": "ng/mL"}, {"measurement": "AUC", "setting": "[3]; female, po, 200 mg/kg/day, 200 mg/kg/day oral, female, Day 7, read-out: AUC24", "value": 31800, "unit": "ng·h/mL"}, {"measurement": "Cmax", "setting": "[3]; female, po, 200 mg/kg/day, 200 mg/kg/day oral, female, Day 14", "value": 2210, "unit": "ng/mL"}, {"measurement": "AUC", "setting": "[3]; female, po, 200 mg/kg/day, 200 mg/kg/day oral, female, Day 14, read-out: AUC24", "value": 27600, "unit": "ng·h/mL"}, {"measurement": "Cmax", "setting": "[3]; male, po, 50 mg/kg/day, 50 mg/kg/day oral, male, Day 2", "value": 836, "unit": "ng/mL"}, {"measurement": "AUC", "setting": "[3]; male, po, 50 mg/kg/day, 50 mg/kg/day oral, male, Day 2, read-out: AUC24", "value": 9480, "unit": "ng·h/mL"}, {"measurement": "Cmax", "setting": "[3]; male, po, 50 mg/kg/day, 50 mg/kg/day oral, male, Day 7", "value": 841, "unit": "ng/mL"}, {"measurement": "AUC", "setting": "[3]; male, po, 50 mg/kg/day, 50 mg/kg/day oral, male, Day 7, read-out: AUC24", "value": 10700, "unit": "ng·h/mL"}, {"measurement": "Cmax", "setting": "[3]; male, po, 50 mg/kg/day, 50 mg/kg/day oral, male, Day 14", "value": 728, "unit": "ng/mL"}, {"measurement": "AUC", "setting": "[3]; male, po, 50 mg/kg/day, 50 mg/kg/day oral, male, Day 14, read-out: AUC24", "value": 8750, "unit": "ng·h/mL"}, {"measurement": "Cmax", "setting": "[3]; male, po, 100 mg/kg/day, 100 mg/kg/day oral, male, Day 2", "value": 1200, "unit": "ng/mL"}, {"measurement": "AUC", "setting": "[3]; male, po, 100 mg/kg/day, 100 mg/kg/day oral, male, Day 2, read-out: AUC24", "value": 15000, "unit": "ng·h/mL"}, {"measurement": "Cmax", "setting": "[3]; male, po, 100 mg/kg/day, 100 mg/kg/day oral, male, Day 7", "value": 917, "unit": "ng/mL"}, {"measurement": "AUC", "setting": "[3]; male, po, 100 mg/kg/day, 100 mg/kg/day oral, male, Day 7, read-out: AUC24", "value": 13000, "unit": "ng·h/mL"}, {"measurement": "Cmax", "setting": "[3]; male, po, 100 mg/kg/day, 100 mg/kg/day oral, male, Day 14", "value": 1290, "unit": "ng/mL"}, {"measurement": "AUC", "setting": "[3]; male, po, 100 mg/kg/day, 100 mg/kg/day oral, male, Day 14, read-out: AUC24", "value": 17000, "unit": "ng·h/mL"}]}]}
